Tests used:
[1] = test system: H1975 xenograft tumors; assay: H1975 xenograft model, tumor growth inhibition; format: in vivo, nude/nude (nu/nu) female mice; conditions: oral, daily
From the text: Four- to six-week-old nude/nude (nu/nu) female mice were obtained from Charles River Laboratories (Hollister, Calif., USA) and maintained in pressurized ventilated caging at the Pfizer La Jolla animal facility. All studies were approved by Pfizer Institutional Animal Care and Use Committees. Xenograft tumors were established by subcutaneously implanting 5×10^6 H1975 cells suspended 1:1 (v/v) with reconstituted basement membrane (Matrigel, BD Biosciences) in nu/nu mice. […] Tumor dimensions were measured with vernier calipers and tumor volumes were calculated using the formula of π/6×larger diameter x (smaller diameter)^2. […] Tumor regression percentage was calculated as 100×(1−ΔT/starting tumor size).

[2] = test system: HCC4006 cell line; assay: HCC4006 duration of response study, T75 flask format; format: cell-based, human; conditions: method of Example 2 (PF-06747775 600 nM, palbociclib 100 nM)
[3] = test system: Cytochrome P-450 3A4; conditions: in vivo; cited from earlier work
[4] = test system: PC9 cell line; assay: PC9 duration of response study, T75 flask format; format: cell-based, human; conditions: method of Example 2 (PF-06747775 600 nM, palbociclib 100 nM)
[5] = test system: H1975 cell line; assay: H1975 duration of response study, 96-well plate format; format: cell-based, human; conditions: PF-06747775 600 nM, palbociclib 100 nM, single agents or combination
From the text: (§1) This experimental approach provides a model of DOR and a means for testing whether combination regimens can increase or extend DOR (Tricker E M, Xu C, Uddin S, et al. Combined EGFR/MEK Inhibition Prevents the Emergence of Resistance in EGFR-Mutant Lung Cancer. Cancer Discov 2015; 5(9):960-71). […] Two different assay formats were used to facilitate quantitative assessment of time to regrowth and to address reproducibility in orthogonal formats.
A 96-well plate format assay was adapted from a published report (Tricker, E., et al., “Combined EGFR/MEK Inhibition Prevents the Emergence of Resistance in EGFR-Mutant Lung Cancer,” Cancer Discovery, 2015, 960-971, vol. 5, no. 9). […] Time was monitored. […] Non-terminal reading of live cells was conducted weekly using an IncuCyte instrument (microscopy-based cell counting, Essen Bioscience, Ann Arbor, Mich., USA). At selected time points throughout the treatment duration, a terminal reading of live cells by Cell Titer Glow method (cell ATP-based counting, Promega, Madison, Wis., USA) was used to confirm cell counts over time and at the end of study. Results were plotted as percent of wells reaching a designated confluency (e.g. 50% confluent) at different time points throughout the treatment period.

[6] = Plasma drug levels in H1975 xenograft study (blood samples day 15)
[7] = test system: H1975 cell line; assay: H1975 duration of response study, T75 flask format; format: cell-based, human; conditions: for Time Elapsed: H1975, T75 flask, single agent: 100 nM palbociclib or 600 nM PF-06747775; for delay in time required to reach a specific total cell number compared to DMSO control (FIG. 1) / number of days for 5×10^5 cells to grow to 8×10^6 cells, Independent Experiment Number 1 / number of days for 5×10^5 cells to grow to 8×10^6 cells, Independent Experiment Number 2: H1975, PF-06747775 600 nM, palbociclib 100 nM, single agents or combination
Protocol: as §1
H1975 cells were seeded (5×10^5 cells per flask) in T75 flasks (one or two flasks per treatment condition). […] Time was monitored. When growth reached 70-90% confluence, the cells were harvested, counted, and half of the collected cells were used to seed a fresh T75 flask. Once growth reached 70-90% confluence again, this process was repeated, then repeated again and again until a constant growth rate was achieved. Results were plotted as total live cells counted over time, for example, at each harvest, the cell number counted at that harvest was added to previous cell count numbers, then plotted as total live cells at that time point.

[8] = test system: HCC827 cell line; assay: HCC827 duration of response study, T75 flask format; format: cell-based, human; conditions: method of Example 2 (PF-06747775 600 nM, palbociclib 100 nM)

Plasma Average Free Drug Concentration Over the 24 hour Dosing Interval, PF-06747775 ([6]; PF-06747775 10/20 mpk alone) [nM]	Plasma Average Free Drug Concentration Over the 24 hour Dosing Interval, Palbociclib ([6]; Palbo 7 mpk alone) [nM]	Plasma Average Free Drug Concentration Over the 24 hour Dosing Interval, Palbociclib ([6]; Palbo 22 mpk alone) [nM]	Plasma Average Free Drug Concentration Over the 24 hour Dosing Interval, Palbociclib ([6]; Palbo 70 mpk alone) [nM]	Compound	anti-tumor efficacy of single agent after 10 days of dosing ([1]; PF-06747775 10 mpk, 10 days)	effect on tumor growth inhibition (TGI) (FIG. 2) ([1]; PF-06747775 single agent, 10/20 mpk (20 mpk from day 11))	HCC4006 Time elapsed (days) for 5×10^5 cells to grow to 8×10^6 cells [2] [days]	metabolism by Cytochrome P-450 3A4 [3]	PC9 Time elapsed (days) for 5×10^5 cells to grow to 8×10^6 cells [4] [days]	number of days for 350 cells per well to grow to 50% of the wells reaching 50% confluence, Independent Experiment Number 1 [5] [days]	number of days for 350 cells per well to grow to 50% of the wells reaching 50% confluence, Independent Experiment Number 2 [5] [days]	Time Elapsed [7] [days]	delay in time required to reach a specific total cell number compared to DMSO control (FIG. 1) [7]	number of days for 5×10^5 cells to grow to 8×10^6 cells, Independent Experiment Number 1 [7] [days]	number of days for 5×10^5 cells to grow to 8×10^6 cells, Independent Experiment Number 2 [7] [days]	effect on tumor growth inhibition (TGI) (FIG. 2) ([1]; palbociclib single agent, 70 mpk)	effect on tumor growth inhibition (TGI) (FIG. 2) ([1]; palbociclib single agent, lower doses (22 mpk and 7 mpk))	HCC827 (independent experiment) Number 1 (days) for 5×10^5 cells to grow to 8×10^6 cells [8] [days]	HCC827 (independent experiment) Number 2 (days) for 5×10^5 cells to grow to 8×10^6 cells [8] [days]
95				C=CC(=O)N[C@@H]1CN(c2nc(Nc3cn(C)nc3OC)c3ncn(C)c3n2)C[C@H]1F [PF-06747775, N-((3R,4R)-4-fluoro-1-(6-((3-methoxy-1-methyl-1H-pyrazol-4-yl)amino)-9-methyl-9H-purin-2-yl)pyrrolidin-3-yl)acrylamide]	less than the desired comparator level	moderate effect	51	metabolized in vivo by this same enzyme	73	16	19	21	significant delay	15	21				
	6	45	127	CC(=O)c1c(C)c2cnc(Nc3ccc(N4CCNCC4)cn3)nc2n(C2CCCC2)c1=O [palbociclib, 6-acetyl-8-cyclopentyl-5-methyl-2-(5-piperazin-1-yl-pyridin-2-ylamino)-8H-pyrido[2,3-d]pyrimidin-7-one]			18		5	7	7	5	slight delay, if any	4	5	minor effect	no effect	11	11

Source: US20190275049A1, “Combination of an EGFR T790M Inhibitor and a CDK Inhibitor for the Treatment of Non-Small Cell Lung Cancer” (PFIZER INC., priority 2016, published 2019)
